Test results: patent US11179415B1 (priority 2020, dated 2021)
Like-named read-outs stand apart in the source and are kept apart here.

Legend:
[1] = rat; in drinking water up to several months; doses as high as 1000 mg/liter (1000 ppm or 0.1%); cited from earlier work
[2] = mouse; in drinking water up to several months; doses as high as 1000 mg/liter (1000 ppm or 0.1%); cited from earlier work
[3] = chicken; in drinking water up to several months; doses as high as 1000 mg/liter (1000 ppm or 0.1%); cited from earlier work
common cold = experiment: inventor's self-use of CLO2 to prevent the common cold; type: in vivo, human; details: 5 ppm CLO2 nasal drops only, several drops per nostril 2 times per day, 3 days from prodromal period; one person
SARS CoV-2 = details: in vivo
Coronavirus SARS CoV-2 = details: Fact Sheet, National Agricultural Biosecurity Center, Kansas State University; cited from earlier work
[4] = OSHA, cited from earlier work
[5] = man; daily ingestion of 500 ml CLO2 at 5 ppm; cited from earlier work
human Coronavirus = details: BASF Aseptrol Label, EPA Registration Number 70060-19; cited from earlier work

[O-][Cl+2]([O-])O [CLO3]
methemoglobin concentrations [1]: no significant increases
methemoglobin concentrations [2]: no significant increases
methemoglobin concentrations [3]: no significant increases

[O][Cl+][O-] [CLO2, chlorine dioxide]
methemoglobin concentrations [1]: no significant increases
development of a common cold (common cold): a cold never developed
methemoglobin concentrations [2]: no significant increases
lung irritation after inhalation of aerosol fog (SARS CoV-2): no resulting lung irritation
symptoms after contracting SARS CoV-2 (SARS CoV-2): only little to slight symptoms
virucidal activity against SARS CoV-2 (Coronavirus SARS CoV-2): kills the Coronavirus SARS CoV-2
methemoglobin concentrations [3]: no significant increases
concentration safe for an 8-hour exposure ([4]; 8-hour exposure): 0.1 ppm
concentration safe for short-time exposure limit (STEL) ([4]; STEL of 15 minutes): 0.3 ppm
tolerability of daily ingestion [5]: safely tolerated
efficacy against human Coronavirus (human Coronavirus): effective against human Coronavirus
